# Assay results: ChEMBL document CHEMBL2074172, “Possible involvement of multiple P-glycoprotein-mediated efflux systems in the transport of verapamil and other organic cations across rat intestine” (Pharm Res, 1995)
# Target: Multidrug resistance protein 1a (Rattus norvegicus) (UniProt Q6PSM0)
# Experiment: TP_TRANSPORTER: serosal to mucosal transport in SD rat intestinal segment
# Format: functional
# Details: Sprague-Dawley, Intestine
# Chain of Multidrug resistance protein 1a (Rattus norvegicus) (Q6PSM0 as listed by the source): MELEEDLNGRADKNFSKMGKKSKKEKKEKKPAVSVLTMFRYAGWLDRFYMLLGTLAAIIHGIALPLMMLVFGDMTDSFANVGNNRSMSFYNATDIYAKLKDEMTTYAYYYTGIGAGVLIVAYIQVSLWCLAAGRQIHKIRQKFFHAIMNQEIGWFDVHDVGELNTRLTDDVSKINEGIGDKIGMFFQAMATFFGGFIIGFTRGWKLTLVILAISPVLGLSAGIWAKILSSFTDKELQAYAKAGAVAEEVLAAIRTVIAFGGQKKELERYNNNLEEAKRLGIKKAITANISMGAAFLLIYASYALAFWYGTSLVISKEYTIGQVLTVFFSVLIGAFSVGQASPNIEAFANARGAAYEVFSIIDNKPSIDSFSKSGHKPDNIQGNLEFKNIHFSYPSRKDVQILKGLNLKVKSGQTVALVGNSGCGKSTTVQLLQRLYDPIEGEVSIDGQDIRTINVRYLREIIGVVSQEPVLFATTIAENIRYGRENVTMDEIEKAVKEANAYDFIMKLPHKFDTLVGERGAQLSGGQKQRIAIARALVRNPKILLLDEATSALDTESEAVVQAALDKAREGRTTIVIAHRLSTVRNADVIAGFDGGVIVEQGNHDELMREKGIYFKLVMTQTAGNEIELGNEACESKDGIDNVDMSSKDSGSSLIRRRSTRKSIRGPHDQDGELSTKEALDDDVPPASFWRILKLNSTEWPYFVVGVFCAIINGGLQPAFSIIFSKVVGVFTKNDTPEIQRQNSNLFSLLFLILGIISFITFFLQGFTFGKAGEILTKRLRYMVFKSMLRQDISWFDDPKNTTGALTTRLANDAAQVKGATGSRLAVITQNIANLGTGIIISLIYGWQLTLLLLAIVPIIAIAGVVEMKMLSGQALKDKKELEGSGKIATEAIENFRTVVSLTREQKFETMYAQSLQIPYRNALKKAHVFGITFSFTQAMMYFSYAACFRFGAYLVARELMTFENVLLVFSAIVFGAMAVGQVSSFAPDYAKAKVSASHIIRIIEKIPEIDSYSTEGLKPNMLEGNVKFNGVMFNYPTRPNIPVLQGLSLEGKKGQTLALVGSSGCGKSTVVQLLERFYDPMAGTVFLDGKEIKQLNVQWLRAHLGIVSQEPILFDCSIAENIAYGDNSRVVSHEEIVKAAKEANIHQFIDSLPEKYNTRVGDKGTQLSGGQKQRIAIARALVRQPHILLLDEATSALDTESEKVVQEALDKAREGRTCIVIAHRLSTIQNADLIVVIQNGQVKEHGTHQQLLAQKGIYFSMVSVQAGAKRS
row,Activity,Compound
1,substrate [+],COc1ccc(CCN(C)CCCC(C#N)(c2ccc(OC)c(OC)c2)C(C)C)cc1OC (configuration not stated)
2,substrate [+],CC(C)[N+](C)(CCOC(=O)C1c2ccccc2Oc2ccccc21)C(C)C
